IC50 data for 22 molecules are collected here from US7235580B2, “Mitotic kinesin inhibitors” (Merck & Co., Inc., priority 2002, dated 2007).

Structures are written as SMILES.

As a reminder, the IC50 is the concentration that inhibits the measured activity by half. A lower IC50 goes with higher potency.

The target of this assay is T1, human KSP motor domain (KSP(367H)) (Homo sapiens, UniProt P52732).
T1 construct: were used to amplify the motor domain and the neck linker region; made in house; host or cells: E. coli BL21 (DE3), pRSETa
T1 sequence (P52732 18-359 limits assumed): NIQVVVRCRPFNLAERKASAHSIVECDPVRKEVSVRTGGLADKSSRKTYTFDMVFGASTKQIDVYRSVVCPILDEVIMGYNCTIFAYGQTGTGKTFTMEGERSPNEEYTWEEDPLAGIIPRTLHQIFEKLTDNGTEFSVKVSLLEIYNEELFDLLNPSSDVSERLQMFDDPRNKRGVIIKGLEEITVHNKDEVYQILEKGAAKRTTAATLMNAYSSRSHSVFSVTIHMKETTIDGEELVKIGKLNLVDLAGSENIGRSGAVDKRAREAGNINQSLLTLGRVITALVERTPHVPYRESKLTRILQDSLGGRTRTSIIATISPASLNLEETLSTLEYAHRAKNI
Put plainly: Kinesin ATPase In Vitro Assay. The class given is biochemical. Particulars: kinesin motor domain with microtubules, 1 mM ATP, 23° C.; free phosphate by quinaldine red/ammonium molybdate. The text has this:
I. Kinesin ATPase In Vitro Assay
Cloning and Expression of Human Poly-histidine Tagged KSP Motor Domain (KSP(367H))
Plasmids for the expression of the human KSP motor domain construct were cloned by PCR using a pBluescript full length human KSP construct (Blangy et al., Cell, vol. 83, pp 1159-1169, 1995) as a template. The N-terminal primer 5′-[…] (SEQ.ID.NO.: 1) and the C-terminal primer 5′-[…] […] (SEQ.ID.NO.: 2) were used to amplify the motor domain and the neck linker region. The PCR products were digested with AseI and XhoI, ligated into the NdeI/XhoI digestion product of pRSETa (Invitrogen) and transformed into E. coli BL21 (DE3).
Cells were grown at 37° C. to an OD600 of 0.5. After cooling the culture to room temperature expression of KSP was induced with 100 μM IPTG and incubation was continued overnight. Cells were pelleted by centrifugation and washed once with ice-cold PBS. Pellets were flash-frozen and stored −80° C.
Cell pellets were thawed on ice and resuspended in lysis buffer (50 mM K-HEPES, pH 8.0, 250 mM KCl, 0.1% Tween, 10 mM imidazole, 0.5 mM Mg-ATP, 1 mM PMSF, 2 mM benzimidine, 1× complete protease inhibitor cocktail (Roche)). Cell suspensions were incubated with 1 mg/ml lysozyme and 5 mM β-mercaptoethanol on ice for 10 minutes, followed by sonication (3×30 sec). All subsequent procedures were performed at 4° C. Lysates were centrifuged at 40,000×g for 40 minutes. Supernatants were diluted and loaded onto an SP Sepharose column (Pharmacia, 5 ml cartridge) in buffer A (50 mM K-HEPES, pH 6.8, 1 mM MgCl2, 1 mM EGTA, 10 μM Mg-ATP, 1 mM DTT) and eluted with a 0 to 750 mM KCl gradient in buffer A. Fractions containing KSP were pooled and incubated with Ni-NTA resin (Qiagen) for one hour. The resin was washed three times with buffer B (Lysis buffer minus PMSP and protease inhibitor cocktail), followed by three 15-minute incubations and washes with buffer B. Finally, the resin was incubated and washed for 15 minutes three times with buffer C (same as buffer B except for pH 6.0) and poured into a column. KSP was eluted with elution buffer (identical to buffer B except for 150 mM KCl and 250 mM imidazole). KSP-containing fractions were pooled, made 10% in sucrose, and stored at −80° C.
Microtubules are prepared from tubulin isolated from bovine brain. Purified tubulin (>97% MAP-free) at 1 mg/ml is polymerized at 37° C. in the presence of 10 μM paclitaxel, 1 mM DTT, 1 mM GTP in BRB80 buffer (80 mM K-PIPES, 1 mM EGTA, 1 mM MgCl2 at pH 6.8). The resulting microtubules are separated from non-polymerized tubulin by ultracentrifugation and removal of the supernatant. The pellet, containing the microtubules, is gently resuspended in 10 μM paclitaxel, 1 mM DTT, 50 μg/ml ampicillin, and 5 μg/ml chloramphenicol in BRB80.
The kinesin motor domain is incubated with microtubules, 1 mM ATP (1:1 MgCl2: Na-ATP), and compound at 23° C. in buffer containing 80 mM K-HEPES (pH 7.0), 1 mM EGTA, 1 mM DTT, 1 mM MgCl2, and 50 mM KCl. The reaction is terminated by a 2-10 fold dilution with a final buffer composition of 80 mM HEPES and 50 mM EDTA. Free phosphate from the ATP hydrolysis reaction is measured via a quinaldine red/ammonium molybdate assay by adding 150 μl of quench C buffer containing a 2:1 ratio of quench A:quench B. Quench A contains 0.1 mg/ml quinaldine red and 0.14% polyvinyl alcohol; quench B contains 12.3 mM ammonium molybdate tetrahydrate in 1.15 M sulfuric acid. The reaction is incubated for 10 minutes at 23° C., and the absorbance of the phospho-molybdate complex is measured at 540 nm.

Turning to `CN1CCC(N(C)C(=O)N2CC(c3cc(F)ccc3F)=C[C@@]2(CO)c2ccccc2)CC1` (stereo in doubt) [Compound 1-10, 4-(2,5-Difluorophenyl)-2-(hydroxymethyl)-N-methyl-N-(1-methylpiperidin-4-yl)-2-phenyl-2,5-dihydro-1H-pyrrole-1-carboxamide], the IC50 was at most 50 µM. The result for `CN(C)C(=O)N1CC(c2cc(F)ccc2F)=CC1(CO)c1ccccc1` (stereo not shown) [Compound 1-9, 4-(2,5-Difluorophenyl)-2-(hydroxymethyl)-N,N-dimethyl-2-phenyl-2,5-dihydro-1H-pyrrole-1-carboxamide] reads at most 50 µM; that for `COCC1(c2ccccc2)C=C(c2cc(F)ccc2F)CN1C(=O)N(C)C` (stereo not shown) [Compound 2-1, 4-(2,5-Difluorophenyl)-2-(methoxymethyl)-N,N-dimethyl-2-phenyl-2,5-dihydro-1H-pyrrole-1-carboxamide], at most 50 µM. As for `CN(C)C(=O)N1CC(c2cc(F)ccc2F)=CC1(COCCO)c1ccccc1` (stereo not shown) [Compound 2-2, 4-(2,5-Difluorophenyl)-2-[(2-hydroxyethoxy)methyl]-N,N-dimethyl-2-phenyl-2,5-dihydro-1H-pyrrole-1-carboxamide], the IC50 was at most 50 µM. Turning to `CN(C)C(=O)N1CC(c2cc(F)ccc2F)=CC1(COCCN)c1ccccc1` (stereo not shown) [Compound 2-3, 2-[(2-Aminoethoxy)methyl]-4-(2,5-difluorophenyl)-N,N-dimethyl-2-phenyl-2,5-dihydro-1H-pyrrole-1-carboxamide], the IC50 was at most 50 µM. For `CN(C)CCNCC1(c2ccccc2)C=C(c2cc(F)ccc2F)CN1C(=O)N(C)C` (stereo not shown) [Compound 3-2, 4-(2,5-Difluorophenyl)-2-({[2-(dimethylamino)ethyl]amino}methyl)-N,N-dimethyl-2-phenyl-2,5-dihydro-1H-pyrrole-1-carboxamide], the IC50 is at most 50 µM. The result for `CN(C)C(=O)N1CC(c2cc(F)ccc2F)=CC1(CCCO)c1ccccc1` (stereo not shown) [Compound 4-1a, 2-(3-Hydroxypropyl)-4-(2,5-difluorophenyl)-N,N-dimethyl-2-phenyl-2,5-dihydro-1H-pyrrole-1-carboxamide] reads at most 50 µM.

For `CN(C)C(=O)N1CC(c2cc(F)ccc2F)=CC1(CCCN)c1ccccc1` (stereo not shown) [Compound 4-3, 2-(3-Aminopropyl)-4-(2,5-difluorophenyl)-N,N-dimethyl-2-phenyl-2,5-dihydro-1H-pyrrole-1-carboxamide], the IC50 was at most 50 µM. In the case of `CN(C)CCCC1(c2ccccc2)C=C(c2cc(F)ccc2F)CN1C(=O)N(C)C` (stereo not shown) [Compound 4-4, 4-(2,5-Difluorophenyl)-2-[3-(dimethylamino)propyl]-N,N-dimethyl-2-phenyl-2,5-dihydro-1H-pyrrole-1-carboxamide] it was at most 50 µM; in that of `CN(C)CC(=O)N1CCC(N(C)C(=O)N2CC(c3cc(F)ccc3F)=CC2(CO)c2ccccc2)CC1` (stereo not shown) [Compound 7-3, 4-(2,5-difluorophenyl)-N-[1-(N,N-dimethylglycyl)piperidin-4-yl]-2-(hydroxymethyl)-N-methyl-2-phenyl-2,5-dihydro-1H-pyrrole-1-carboxamide], at most 50 µM; in that of `CN(C(=O)N1CC(c2cc(F)ccc2F)=CC1(CO)c1ccccc1)C1CCN(CC(F)F)CC1` (stereo not shown) [Compound 10-1, N-[1-(2,2-difluoroethyl)piperidin-4-yl]-4-(2,5-difluorophenyl)-2-(hydroxymethyl)-N-methyl-2-phenyl-2,5-dihydro-1H-pyrrole-1-carboxamide], at most 50 µM. The result for `CN(C(=O)N1CC(c2cc(F)ccc2F)=CC1(CO)c1ccccc1)C1CCN(CCO)CC1` (stereo not shown) [Compound 11-1, 4-(2,5-difluorophenyl)-N-[1-(2-hydroxyethyl)piperidin-4-yl]-2-(hydroxymethyl)-N-methyl-2-phenyl-2,5-dihydro-1H-pyrrole-1-carboxamide] reads at most 50 µM; that for `CN(C(=O)N1CC(c2cc(F)ccc2F)=C[C@@]1(CO)c1ccccc1)C1CCN(CCF)CC1` [Compound 12-1, (2S)-4-(2,5-difluorophenyl)-N-[1-(2-fluoroethyl)piperidin-4-yl]-2-(hydroxymethyl)-N-methyl-2-phenyl-2,5-dihydro-1H-pyrrole-1-carboxamide], at most 50 µM. The molecule `CN(C(=O)N1CC(c2cc(F)ccc2F)=CC1(CO)c1ccccc1)C1CCN(CS(C)(=O)=O)CC1` (stereo not shown) [Compound 13-1, 4-(2,5-difluorophenyl)-2-(hydroxymethyl)-N-methyl-N-{1-[(methylsulfonyl)methyl]piperidin-4-yl}-2-phenyl-2,5-dihydro-1H-pyrrole-1-carboxamide] returned an IC50 of at most 50 µM.

`CN(C(=O)N1CC(c2cc(F)ccc2F)=CC1(CO)c1ccccc1)C1CCN(C(CF)CF)CC1` (stereo not shown) [Compound 14-1] returned an IC50 of at most 50 µM. The result for `CN(C(=O)N1CC(c2cc(F)ccc2F)=C[C@@]1(CO)c1ccccc1)C1CCN(C2CC2)CC1` [Compound 15-1, (2S)-N-(1-cyclopropylpiperidin-4-yl)-4-(2,5-difluorophenyl)-2-(hydroxymethyl)-N-methyl-2-phenyl-2,5-dihydro-1H-pyrrole-1-carboxamide] reads at most 50 µM; that for `CN(C(=O)N1CC(c2cc(F)ccc2F)=CC1(CO[Si](C)(C)C(C)(C)C)c1ccccc1)C1CCN(CC(=O)OCc2ccccc2)CC1` (stereo not shown) [Compound 16-1], at most 50 µM; that for `COCC1(c2ccccc2)C=C(c2cc(F)ccc2F)CN1C(=O)N(C)C1CCN(C)CC1` (stereo not shown) [Compound 18-2, 4-(2,5-difluorophenyl)-2-(methoxymethyl)-N-methyl-N-(1-methylpiperidin-4-yl)-2-phenyl-2,5-dihydro-1H-pyrrole-1-carboxamide], at most 50 µM. As for `CN(C)C(=O)N1CC(c2cc(Cl)ccc2F)=CC1(CCCNS(C)(=O)=O)c1ccccc1` (stereo not shown) [Compound 21-1, 4-(5-chloro-2-fluorophenyl)-N,N-dimethyl-2-{3-[(methylsulfonyl)amino]propyl}-2-phenyl-2,5-dihydro-1H-pyrrole-1-carboxamide], the IC50 was at most 50 µM. The result for `COC(=O)NCCCC1(c2ccccc2)C=C(c2cc(Cl)ccc2F)CN1C(=O)N(C)C` (stereo not shown) [Compound 22-1, methyl 3-{4-(5-chloro-2-fluorophenyl)-1-[(dimethylamino)carbonyl]-2-phenyl-2,5-dihydro-1H-pyrrol-2-yl}propylcarbamate] reads at most 50 µM; that for `CN(C)C(=O)N1CC(c2cc(Cl)ccc2F)=CC1(CCCNC(N)=O)c1ccccc1` (stereo not shown) [Compound 23-1, 2-{3-[(aminocarbonyl)amino]propyl}-4-(5-chloro-2-fluorophenyl)-N,N-dimethyl-2-phenyl-2,5-dihydro-1H-pyrrole-1-carboxamide], at most 50 µM; that for `CN(C)C(=O)N1CC(c2cc(F)ccc2F)=CC1(CCC(=O)Nc1ccccc1)c1ccccc1` (stereo not shown) [Compound 24-2, 2-(3-anilino-3-oxopropyl)-4-(2,5-difluorophenyl)-N,N-dimethyl-2-phenyl-2,5-dihydro-1H-pyrrole-1-carboxamide], at most 50 µM.
